One series has as its system NPTX1. Nature of the series: NPTX1 knock down by lentiviral shRNA in hESCs, message level. Type of series: cell-based, human. Conditions: day 3 of neural differentiation. Here is the method:
(§1) Feeder free neural induction was carried out as previously described (Chambers et al., supra). Briefly, hESC cultures (WA-09 cells) were disaggregated using Accutase (Innovative Cell Technologies, Inc., San Diego, Calif.) for 20 minutes, washed using hESC media and pre-plated on gelatin for 1 hour at 37° C. in the presence of ROCK inhibitor (Sigma, Carlsbad, Calif.) to remove MEFs. The nonadherent hESCs were washed and plated at a density of 20,000 cells/cm^2 on BD Matrigel™ matrix (BD Biosciences, San Diego, Calif.) coated dishes in MEF conditioned hESCs media (CM) spiked with 10 ng/mL of FGF-2 and ROCK-inhibitor (Sigma). The ROCK inhibitor was withdrawn, and hESCs were allowed to expand in CM for 3 days or until they were nearly confluent. The initial differentiation media conditions included knock out serum replacement (KSR) media with […] TGF-β inhibitor (SB431542, Tocris) and 500 ng/mL of Noggin (R&D Systems). Upon day 5 of differentiation, increasing amounts of N2 media (Fasano et al., 2010, supra) (25%, 50%, 75%) was added to the KSR media every two days while maintaining 500 ng/mL of Noggin and TGF-β inhibitor.
(§2) Total RNA was extracted using an RNeasy kit (Qiagen). For each sample, 1 μg of total RNA was treated for DNA contamination and reverse transcribed using Quantitect first strand kit (Qiagen). Amplified material was detected using Taqman probes and PCR mix (ABI) on a Mastercycler RealPlex2 (Eppendorf). All results were normalized to a HPRT control and were from 3 technical replicates of 3 independent biological samples at each data point.
NPTX1 open reading frame (ORF) was generated by PCR. This fragment was cloned into the BamH1 and NotI sites of the lentiviral vector, pCDH-EF1-MCS-IRES GFP(SBI Biosciences). […] Viral titers were measured by serial dilution on NIH 3T3 cells (ATCC Deposit No. CRL-1658) followed by flow cytometric analysis after 72 hours. […]

For series [1], the system named is hESCs (WA-09). Nature of the series: Neural induction of hESCs (dual SMAD inhibition protocol), marker expression by qRT-PCR / immunostaining. In kind it is cell-based, human. Conditions: for expression of the neural genes SOX1 and PAX6 (mRNA) compared to control: control empty vector. Here is the method: as §1, §2
Cells were fixed using 4% paraformaldehyde for 15 minutes, washed with PBS, permeabilized using 0.3% Triton X in PBS, and blocked using 10% normal goat serum. Primary antibody used for microscopy was PAX6 (DSHB).
hESCs (WA-09; passages 35) were dissociated and plated on Matrigel with the ROCK inhibitor as single cells. 24 hrs post plating the ESCs were transduced with either control (empty vector), NPTX1 shRNA, or NPTX10RF containing vectors. One (1) week later, GFP-expressing colonies were manually picked and plated on MEFs. Cells were then expanded, tested for mycoplasma.
(§3) Antibodies used for performing immunocytochemistry, methods for which are described in Fasano et al., 2007, and 2010, supra, were obtained commercially as follows: PAX6 (Developmental Studies Hybridoma Bank (Iowa City, Iowa)), SOX2 (Santa Cruz Biotechnology (SCBT) (Santa Cruz, Calif.)), Nestin (Chemicon (Temecula, Calif.)), Nanog (SCBT), OCT-4 (SCBT), SMAD3 and SMAD1 (Cell Signaling Technology, Inc., Danvers, Mass.), FOXG1 (NeuraCell, Rensselaer, N.Y.), SSEA-4, SSEA-3, SSEA-1 (BD Pharmingen (San Diego, Calif.)). Alexa secondary antibodies were purchased from Invitrogen.

For series [2], the system named is hESCs (WA-09). The series can be described thus: Neurosphere assay on cells isolated at day 7 of differentiation. Type of series: cell-based, human. The text has this:
To assess the neural character of the cells generated, the resulting cells were isolated at day 7 of differentiation and subjected to a neurosphere assay. […] In control conditions, the neural genes PAX6 and SOX1 started to appear around day 4 (FIGS. 4B and 4C, respectively).

For series [3], the system named is hESCs. The series can be described thus: Dual SMAD protocol with substituted factors, PAX6 and SMAD1 at day 7 (BMP signaling). In kind it is cell-based, human. Conditions: after 7 days of differentiation. The procedure: as §1, §3
The directed neural differentiation paradigm used in this study employed the use of both a TGF-beta blocker (SB431542) and Noggin, a BMP blocker, as it has been shown that blocking only TGF-beta is not sufficient to drive neural commitment. While CRIPTO works to enhance NODAL signaling, it has been shown that NODAL itself can bind up BMPs and thus lower BMP signaling. Because NPTX1 depletes available CRIPTO in the extracelluar space and cell surface, it seemed plausible that the resulting excess Nodal could dampen BMP signaling. To test whether NPTX1 expression can reduce BMP signaling, the dual SMAD protocol was employed to generate neural cells (addition of Noggin and TGF-beta inhibitor SB431542).
In one condition, Noggin was substituted with a CRIPTO blocking antibody to see if CRIPTO loss could result in robust neural differentiation. As a positive control for BMP signaling, another group was treated with high levels of BMP7. After 7 days of differentiation, neural marker expression and SMAD1 levels were determined.

Series [4] relates to hESCs. The series can be described thus: Recombinant CRP added to hESCs in neural differentiation conditions, mRNA at day 7. In kind it is cell-based, human. The note with it: 2 μg/ml, administered on days 0, 3 and 5; 7 days. The procedure: as §2
C-Reactive Protein (CRP) is a pentraxin protein that is found in the blood, and levels of which rise in response to stress and/or inflammation. […] It was also reported that, when CRP levels went over a particular threshold at 4-weeks of gestation, the time at which nervous system development occurs, an increased rate of miscarriage was identified. In the present Example, it was thus tested whether another member of the pentraxin protein family, in addition to NPTX1 might play an important role in neural differentiation. Recombinant CRP(R&D Systems, 2 μg/ml) or a vehicle control was added to hESCs cultured in conditions that would allow for neural development to proceed normally in the dish. […] Such acceleration of human development could be a cue for miscarriage and/or neural birth defects in fetuses exposed to high levels of CRP during this critical time of gestation.

The next series has as its target T1, CRIPTO (Homo sapiens, UniProt P13385).
T1 construct: endogenous in cells; host or cells: hESCs (WA-09), membrane fraction of lysed cells
T1 sequence (P13385 31-150): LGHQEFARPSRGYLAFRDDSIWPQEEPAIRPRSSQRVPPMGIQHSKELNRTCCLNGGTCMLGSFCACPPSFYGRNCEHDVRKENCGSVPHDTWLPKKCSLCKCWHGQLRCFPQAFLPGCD
Nature of the series: Co-immunoprecipitation of CRIPTO with NPTX1-His from membrane fraction of hESCs. In kind it is binding. The note with it: conditioned media applied to hESCs for 1 hour.

Setting [5] is: day 7 of neural differentiation.

For the molecule “shRNA3: lentiviral NPTX1 shRNA, GAG AAA GGT CAG AAA GAC A (SEQ ID NO: 44) (GAGAAAGGTCAGAAAGACA)”, the “knock down of NPTX1 at the message level” value in the series on NPTX1 is “successfully knocked down NPTX1”. In addition, the “expression of the neural genes SOX1 and PAX6 (mRNA) compared to control” value (“expression … (mRNA) compared to control” for short) in the series on hESCs (WA-09) [1] (setting [5]) is on record as “significantly reduced levels”. The “expression of early neuroectodermal markers GBX2 and SOX2 (qRT-PCR)” value in the series on hESCs (WA-09) [1] (days 0-7, days 5 and 7 statistically significant) was “drastic reduction”.
As to “shRNA2: lentiviral NPTX1 shRNA, ACG TGT AGG TTG AGA ACA A (SEQ ID NO: 43) (ACGTGTAGGTTGAGAACAA)”, in the series with NPTX1, the “knock down of NPTX1 at the message level” value was “successfully knocked down NPTX1”. For the same molecule, in the series with hESCs (WA-09) [1] (NPTX1 knockdown hESCs), the “SMAD2 and SMAD3 gene expression (RT-PCR)” value is listed as “elevated gene expression”. Further, the “NANOG and OCT4 levels compared to control” value in the series on hESCs (WA-09) [1] (day 7 of differentiation) is “elevated levels”. Besides, in the series on hESCs (WA-09) [1] (setting [5]), the “CRIPTO expression compared to control-treated cells” value turned out to be 20 fold; the “expression … (mRNA) compared to control” value is reported as “significantly reduced levels”. In the series on hESCs (WA-09) [1] (time course of neural differentiation), the “gene expression of PAX6 and SOX1 along the time course compared to control” value was “much delayed and at much lower levels”. In the series on hESCs (WA-09) [2], the “number of neurospheres compared to control” value was “significant reduction”.
On to `NC(=O)c1ccc(-c2nc(-c3ccc4c(c3)OCO4)c(-c3ccccn3)[nH]2)cc1` [SB431542, reference compound], for which, in the series with hESCs [3], the PAX6 expression entry is reported as “few PAX6 cells” and the “pSMAD1 / SMAD1 levels” value is listed as “high pSMAD1 levels”.
Take “shRNA1: lentiviral NPTX1 shRNA, AGT AAA GAG TGG AGA AAG A (SEQ ID NO: 42); did not knock down, used as negative control (AGTAAAGAGTGGAGAAAGA)”: the “knock down of NPTX1 at the message level” value in the series with NPTX1 is listed as “did not knock down NPTX1”. Also, the “expression … (mRNA) compared to control” value in the series with hESCs (WA-09) [1] (setting [5]) was “no effect”.

B1: CRP: recombinant C-reactive protein (R&D Systems), a pentraxin protein (protein, UniProt P02741 19-224, looked up)
C-reactive protein: QTDMSRKAFVFPKESDTSYVSLKAPLTKPLKAFTVCLHFYTELSSTRGYSIFSYATKRQDNEILIFWSKDIGYSFTVGGSEILFEVPEVTVAPVHICTSWESASGIVEFWVDGKPRVRKSLKKGYTVGAEASIILGQEQDSFGGNFEGSQSLVGDIGNVNMWDFVLSPDEINTIYLGGPFSPNVLNWRALKYEVQGEVFTKPQLWP
Take B1: in the series with hESCs [4], the NPTX1 expression result was “increase” and the “neural marker PAX6 compared to the control” value is reported as “striking up-regulation”.

B2: BMP7: positive control for BMP signaling, high levels of BMP7 (protein, UniProt P18075 293-431, looked up)
Bone morphogenetic protein 7: STGSKQRSQNRSKTPKNQEALRMANVAENSSSDQRQACKKHELYVSFRDLGWQDWIIAPEGYAAYYCEGECAFPLNSYMNATNHAIVQTLVHFINPETVPKPCCAPTQLNAISVLYFDDSSNVILKKYRNMVVRACGCH
Turning to B2, in the series on hESCs [3], the PAX6 expression result is reported as “few PAX6 cells” and the “pSMAD1 / SMAD1 levels” value is on record as “high pSMAD1 levels”.

B3: NPTX1-His: NPTX1 protein with six HIS amino acids on the N-terminus, in conditioned media (protein)
chain: HHHHHHQDFGPTRFICTSVPVDADMCAASVAAGGAEELRSSVLQLRETVLQQKETILSQKETIRELTAKLGRCESQSTLDPGAGEARAGGGRKQPGSGKNTMGDLSRTPAAETLSQLGQTLQSLKTRLENLEQYSRLNSSSQTNSLKDLLQSKIDELERQVLSRVNTLEEGKGGPRNDTEERVKIETALTSLHQRISELEKGQKDNRPGDKFQLTFPLRTNYMYAKVKKSLPEMYAFTVCMWLKSSATPGVGTPFSYAVPGQANELVLIEWGNNPMEILINDKVAKLPFVINDGKWHHICVTWTTRDGVWEAYQDGTQGGSGENLAPYHPIKPQGVLVLGQEQDTLGGGFDATQAFVGELAHFNIWDRKLTPGEVYNLATCSTKALSGNVIAWAESHIEIYGGATKWTFEACRQIN
For the molecule B3, the “co-immunoprecipitation with CRIPTO” value with CRIPTO is listed as “coimmunoprecipitate”.

Source of the values: patent US20120101024A1, “Methods and Compositions for Differentiating Embryonic Stem Cells” (REGENERATIVE RESEARCH FOUNDATION, priority 2010, published 2012).
